# Reference: patent US11834463B2, “High affinity macrocyclic FKB51-inhibitors for treatment of psychiatric disorders” (priority 2020, dated 2023)
# Read-outs that look alike come from different tables or passages of the source.
# How the values were obtained:
# FKBP12 = FKBP12 (Homo sapiens, UniProt P62942); experiment: competitive fluorescence polarization assay, binding to FKBP12
# Method: (§1) All macrocyclic compounds were tested in a competitive fluorescence polarization assay for binding towards FKBP51 as well as the homologs FKBP12, FKBP12.6 and FKBP52 (Table 1).
# (§2) Example 8: […] of the Macrocyclic FKBP51 Ligands by SPPS
# FKBP12.6 = FKBP12.6 (Homo sapiens, UniProt P68106); experiment: competitive fluorescence polarization assay, binding to FKBP12.6
# Sequence of FKBP12.6 (P68106 whole entry): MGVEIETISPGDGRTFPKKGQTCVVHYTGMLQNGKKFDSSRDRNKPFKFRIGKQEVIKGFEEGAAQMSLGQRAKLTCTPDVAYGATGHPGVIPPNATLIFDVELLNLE
# Method: as §1, §2
# FKBP51FK1 = biological target: T1, FKBP51FK1 (Homo sapiens, UniProt Q13451); experiment: biochemical
# T1 sequence (Q13451 42-130 limits assumed): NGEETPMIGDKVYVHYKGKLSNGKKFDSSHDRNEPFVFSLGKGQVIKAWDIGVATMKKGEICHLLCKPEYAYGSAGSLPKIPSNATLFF
# Method: as §1, §2
# [1] = Table 1, competitive Fluorescence Polarization Assay, read-out: Ki [nM] FKBP12
# [2] = Table 1, competitive Fluorescence Polarization Assay, read-out: Ki [nM] FKBP12.6
# [3] = Ki [nM] FKBP51FK1, Table 1, competitive Fluorescence Polarization Assay
# Sequence of FKBP12 (P62942 whole entry): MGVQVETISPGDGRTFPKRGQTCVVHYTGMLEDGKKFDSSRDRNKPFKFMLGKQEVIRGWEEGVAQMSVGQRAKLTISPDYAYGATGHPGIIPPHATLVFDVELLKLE
Structure (SMILES),Ki (FKBP12; [1]) [nM],Ki (FKBP12.6; [2]) [nM],"Ki (FKBP12; Table 2, read-out: FKBP12 Ki) [nM]","Ki (FKBP12.6; Table 2, read-out: FKBP12.6 Ki) [nM]",other results
COc1ccc(CC[C@H]2OC(=O)[C@@H]3CCCCN3C(=O)[C@@H](C3CCCCC3)c3cc(OC)c(c(OC)c3)OCCOC/C=C\COc3cccc2c3)cc1OC [33-(Z)],309,186,–,–,–
"COc1ccc(CC[C@H]2OC(=O)[C@@H]3CCCCN3C(=O)[C@@H](C3CCCCC3)NC(=O)CNC(=O)COc3cccc2c3)cc1OC [Compound 83, (2R,5S,12R)-12-cyclohexyl-2-[2-(3,4-dimethoxyphenyl)ethyl]-3,19-dioxa-10,13,16-triazatricyclo[18.3.1.0^5,10]tetracosa-1(24),20,22-triene-4,11,14,17-tetrone]",–,–,> 80000,> 80000,"Ki (FKBP51FK1; affinity, same values as Table 2 FKBP51FK1): 2300 nM"
"COc1cccc([C@@H](CCc2ccc(OC)c(OC)c2)OC(=O)[C@@H]2CCCCN2C(=O)[C@H](c2cc(OC)c(OC)c(OC)c2)C2CCCCC2)c1 [Compound A1, reference compound]",222,199,–,–,Ki (FKBP51FK1; [3]): 94 nM
COc1ccc(CC[C@H]2OC(=O)[C@@H]3CCCCN3C(=O)[C@@H](C3CCCCC3)c3cc(OC)c(OC)c(c3)OCCCCOc3cccc2c3)cc1OC [Compound 43],92,62,–,–,Ki (FKBP51FK1; [3]): 30 nM
COc1ccc(CC[C@H]2OC(=O)[C@@H]3CCCCN3C(=O)[C@@H](C3CCCCC3)c3cc(OC)c(OC)c(c3)OCCOCCCCOc3cccc2c3)cc1OC [Compound 45],123,84,–,–,Ki (FKBP51FK1; [3]): 48 nM
COc1ccc(CC[C@H]2OC(=O)[C@@H]3CCCCN3C(=O)[C@@H](C3CCCCC3)c3cc(OC)c(c(OC)c3)OCCOC/C=C/COc3cccc2c3)cc1OC [33-(E)],534,361,–,–,–
"COc1ccc(CC[C@H]2OC(=O)[C@@H]3CCCCN3C(=O)[C@@H](C3CCCCC3)NC(=O)[C@@H](C)NC(=O)COc3cccc2c3)cc1OC [Compound 84, (2R,5S,12R,15R)-12-cyclohexyl-2-[2-(3,4-dimethoxyphenyl)ethyl]-15-methyl-3,19-dioxa-10,13,16-triazatricyclo[18.3.1.0^5,10]tetracosa-1(24),20,22-triene-4,11,14,17-tetrone]",–,–,> 80000,> 80000,–
"COc1ccc(CC[C@H]2OC(=O)[C@@H]3CCCCN3C(=O)[C@@H](C3CCCCC3)NC(=O)CCCNC(=O)COc3cccc2c3)cc1OC [Compound 95, (2R,5S,12R)-12-cyclohexyl-2-[2-(3,4-dimethoxyphenyl)ethyl]-3,21-dioxa-10,13,18-triazatricyclo[20.3.1.0^5,10]hexacosa-1(26),22,24-triene-4,11,14,19-tetrone]",–,–,–,–,affinity (in words) (FKBP51FK1): no binding
"COc1ccc(CC[C@H]2OC(=O)[C@@H]3CCCCN3C(=O)[C@@H](C3CCCCC3)NC(=O)C3(CC3)NC(=O)COc3cccc2c3)cc1OC [Compound 86, (2′R,5′S,12′R)-12′-cyclohexyl-2′-[2-(3,4-dimethoxyphenyl)ethyl]-3′,19′-dioxa-10′,13′,16′-triazaspiro[cyclopropane-1,15′-tricyclo[18.3.1.0^5,10]tetracosane]-1′(24′),20′,22′-triene-4′,11′,14′,17′-tetrone]",–,–,> 80000,> 80000,–
"COc1cc2cc(c1)[C@@H](CCc1ccc(OC)c(OC)c1)OC(=O)[C@@H]1CCCCN1C(=O)[C@@H](C1CCCCC1)NC(=O)C(C)(C)NC(=O)CO2 [Compound 104, (2R,5S,12R)-12-cyclohexyl-2-[2-(3,4-dimethoxyphenyl)ethyl]-22-methoxy-15,15-dimethyl-3,19-dioxa-10,13,16-triazatricyclo[18.3.1.0^5,10]tetracosa-1(24),20,22-triene-4,11,14,17-tetrone]",–,–,–,–,"affinity (in words) (FKBP51FK1): bound similarly to the glycine derivative 83; Ki (FKBP51FK1; FKBP51FK1 Ki [μM], Table 2, [a] standard error from three, [c] error from two independent measurements): 390 nM"
"COc1ccc(CC[C@H]2OC(=O)[C@@H]3CCCCN3C(=O)[C@@H](C3CCCCC3)NC(=O)[C@H]3CCCN3C(=O)COc3cccc2c3)cc1OC [Compound 90, (9R,12R,19S,22R)-12-cyclohexyl-22-[2-(3,4-dimethoxyphenyl)ethyl]-2,21-dioxa-5,11,14-triazatetracyclo[21.3.1.0^5,9.0^14,19]heptacosa-1(26),23(27),24-triene-4,10,13,20-tetrone]",–,–,> 80000,> 80000,–
